Laboratory results from patent publication US12123048B2, “Fluorinated 4′-alkylumbelliferyl a-D-glucopyranosides, biological sterilization indicators including the same and methods of using the same” (3M INNOVATIVE PROPERTIES COMPANY, priority 2018, dated 2024).

Tested on: Geobacillus stearothermophilus spores (ATCC 7953)
Assay: Fluorescence measurements using enzyme substrates and Geobacillus stearothermophilus spores in LB broth
Type: cell-based
Conditions: substrate 0.3 mg/mL, 5×10^6 spores, 60° C.
Experimental: Luria-Bertani (LB) broth was prepared by dissolving tryptone (10 g/L), yeast extract (5 g/L), and NaCl (5 g/L) in deionized water. In the examples, 6′-fluoro-4′-methylumbelliferyl α-D-glucopyranoside (0.3 mg/mL) or 5′-fluoro-4′-methylumbelliferyl α-D-glucopyranoside (0.3 mg/mL) was added to the broth. In the comparative examples, 4′-methylumbelliferyl α-D-glucopyranoside (MUG) (0.3 mg/mL) or 6′,8′-Difluoro-4′-methylumbelliferyl α-D-glucopyranoside (0.3 mg/mL) was added to the broth. The pH of the broth was adjusted to either pH 6, pH 7, pH 8, or pH 9 using 0.1 N hydrochloric acid or 1N sodium hydroxide solutions. The broth was passed through a 0.22 micron filter prior to use.
LB broth (pH 6) containing 6′-fluoro-4′-methylumbelliferyl α-D-glucopyranoside (0.3 mg/mL) (enzyme substrate of Example 1) was added to two wells (100 microliters per well) of a black 96-well microtiter plate with optically clear, flat bottom wells (NUNC #165301, Thermo Fisher Scientific, Waltham, MA). A 5 microliter aqueous suspension containing 5×10^6 Geobacillus stearothermophilus spores (ATCC 7953) was added to each well of the microtiter plate. Next, the contents of each well were mixed using a multiple aspiration/delivery sequence with the pipet. […] The top of the plate was covered with an optically clear sealing film (product #4311971, Applied Biosystems Corporation, Foster City, CA). The plate was warmed at 60° C. and shaken in a linear direction. Fluorescence readings (360 nm excitation/450 nm emission at 50% gain) were taken from the bottom of the plate. A reading was taken at an initial time point of 10 seconds and then at +1 minute intervals thereafter. A Synergy Neo2 fluorescence plate reader (BioTek Company, Winooski, VT) was used. In Table 1, the mean fluorescence values detected (RFU) at times of 10 seconds, +5 minutes, +10 minutes, and +30 minutes are reported. The mean fluorescence values detected for the control wells were 978 RFU at 10 seconds; 920 RFU at +5 minutes; 870 RFU at +10 minutes, and 746 RFU at +30 minutes.
The procedure of Example 3 was followed, with the exception that the LB broth (pH 6) containing 6′-fluoro-4′-methylumbelliferyl α-D-glucopyranoside (0.3 mg/mL) was replaced with LB broth (pH 6) containing 5′-fluoro-4′-methylumbelliferyl-α-D-glucopyranoside (0.3 mg/mL) (enzyme substrate of Example 2). In Table 1, the mean fluorescence values detected (RFU) at times of 10 seconds, +5 minutes, +10 minutes, and +30 minutes are reported. The mean fluorescence values detected for the control wells were 828 RFU at 10 seconds; 784 RFU at +5 minutes; 738 RFU at +10 minutes, and 622 RFU at +30 minutes.
The procedure of Example 3 was followed, with the exception that the LB broth (pH 6) containing 6′-fluoro-4′-methylumbelliferyl α-D-glucopyranoside (0.3 mg/mL) was replaced with LB broth (pH 6) containing 4-methylumbelliferyl α-D-glucopyranoside (0.3 mg/mL) (MUG). In Table 1, the mean fluorescence values detected (RFU) at times of 10 seconds, +5 minutes, +10 minutes, and +30 minutes are reported. The mean fluorescence values detected for the control wells were 868 RFU at 10 seconds; 802 RFU at +5 minutes; 756 RFU at +10 minutes, and 656 RFU at +30 minutes.
The procedure of Example 3 was followed, with the exception that the LB broth (pH 6) containing 6′-fluoro-4′-methylumbelliferyl α-D-glucopyranoside (0.3 mg/mL) was replaced with LB broth (pH 6) containing 6′,8′-difluoro-4′-methylumbelliferyl α-D-glucopyranoside (0.3 mg/mL) (enzyme substrate of Comparative Example A). In Table 1, the mean fluorescence values detected (RFU) at times of 10 seconds, +5 minutes, +10 minutes, and +30 minutes are reported. The mean fluorescence values detected for the control wells were 1,768 RFU at 10 seconds; 1,750 RFU at +5 minutes; 1,743 RFU at +10 minutes, and 1,805 RFU at +30 minutes. […]

[1] = pH 6 LB broth, 360 nm excitation/450 nm emission

| Compound | MEASURED FLUORESCENCE, RFU 10 sec [1] | MEASURED FLUORESCENCE, RFU +5 min (pH 6 LB broth) | MEASURED FLUORESCENCE, RFU +10 min (pH 6 LB broth) | MEASURED FLUORESCENCE, RFU +30 min (pH 6 LB broth) | MEASURED FLUORESCENCE, RFU 10 sec (pH 7 LB broth) | MEASURED FLUORESCENCE, RFU +5 min (pH 7 LB broth) | MEASURED FLUORESCENCE, RFU +10 min (pH 7 LB broth) | MEASURED FLUORESCENCE, RFU +30 min (pH 7 LB broth) | MEASURED FLUORESCENCE, RFU 10 sec (pH 8 LB broth) | MEASURED FLUORESCENCE, RFU +5 min (pH 8 LB broth) | MEASURED FLUORESCENCE, RFU +10 min (pH 8 LB broth) | MEASURED FLUORESCENCE, RFU +30 min (pH 8 LB broth) | MEASURED FLUORESCENCE, RFU 10 sec (pH 9 LB broth) | MEASURED FLUORESCENCE, RFU +5 min (pH 9 LB broth) | MEASURED FLUORESCENCE, RFU +10 min (pH 9 LB broth) | MEASURED FLUORESCENCE, RFU +30 min (pH 9 LB broth) |
| --- | --- | --- | --- | --- | --- | --- | --- | --- | --- | --- | --- | --- | --- | --- | --- | --- |
| Cc1cc(=O)oc2cc(O[C@H]3O[C@H](CO)[C@@H](O)[C@H](O)[C@H]3O)cc(F)c12 [Example 2, 5′-Fluoro-4′-methylumbelliferyl α-D-glucopyranoside] | 1663 RFU | 3559 RFU | 7048 RFU | 20550 RFU | 5842 RFU | 15059 RFU | 28596 RFU | 58390 RFU | 3928 RFU | 11692 RFU | 26273 RFU | 66491 RFU | 1116 RFU | 3002 RFU | 7983 RFU | 43732 RFU |
| Cc1cc(=O)oc2c(F)c(O[C@H]3O[C@H](CO)[C@@H](O)[C@H](O)[C@H]3O)c(F)cc12 [Comparative Example A, 6′,8′-Difluoro-4′-methylumbelliferyl α-D-glucopyranoside] | 29807 RFU | 68823 RFU | 85625 RFU | >100000 RFU | 32795 RFU | 67118 RFU | 89943 RFU | >100000 RFU | 20878 RFU | 48312 RFU | 77765 RFU | >100000 RFU | 4119 RFU | 12620 RFU | 31290 RFU | 77404 RFU |
| Cc1cc(=O)oc2cc(O[C@H]3O[C@H](CO)[C@@H](O)[C@H](O)[C@H]3O)c(F)cc12 [Example 1, 6′-Fluoro-4′-methylumbelliferyl α-D-glucopyranoside] | 11764 RFU | 30536 RFU | 51188 RFU | 82334 RFU | 24718 RFU | 54317 RFU | 79851 RFU | >100000 RFU | 11298 RFU | 32225 RFU | 61862 RFU | >100000 RFU | 2823 RFU | 8863 RFU | 22809 RFU | 77125 RFU |
| Cc1cc(=O)oc2cc(O[C@H]3O[C@H](CO)[C@@H](O)[C@H](O)[C@H]3O)ccc12 [MUG, 4′-methylumbelliferyl-α-D-glucopyranoside] | 1590 RFU | 3100 RFU | 5607 RFU | 15915 RFU | 3298 RFU | 7944 RFU | 15511 RFU | 41643 RFU | 3450 RFU | 9572 RFU | 21171 RFU | 64484 RFU | 1193 RFU | 3444 RFU | 9258 RFU | 48874 RFU |
